Source: article PMC9694544, “Conteltinib (CT-707) in patients with advanced ALK-positive non-small cell lung cancer: a multicenter, open-label, first-in-human phase 1 study” (BMC Medicine, 2022)
Read-outs that look alike come from different tables or passages of the source.

Legend:
[1] = clinical; details: human, in vivo; for AUC(0-inf): read-out: AUCINF_obs; for Cmax: read-out: Cmax
Experimental: For single-dose PK parameters, plasma samples were taken at pre-dose and 0.5 h, 1 h, 2 h, 3 h, 4 h, 6 h, 8 h, 12 h, 24 h, 48 h, 72 h, 96 h, 120 h, 144 h, and 168 h post-dose in PK lead-in phase of dose-escalation phase, and plasma samples were also taken at pre-dose and 0.5 h, 1 h, 2 h, 3 h, 4 h, 6 h, 8 h, 12 h, and 24 h post-dose in cycle 1 day 1 of dose-expansion phase. During continuous dosing, serial plasma samples were collected at pre-dose in cycle 1 day 15, pre-dose in cycle 1 day 22, pre-dose and 0.5 h, 1 h, 2 h, 3 h, 4 h, 6 h, 8 h, 12 h, and 24 h post-dose in cycle 1 day 28 for all dose cohorts. The following PK parameters were assessed: area under the concentration-time curve from the time of dosing extrapolated to infinity, based on the last observed concentration (AUCINF_obs); area under the concentration-time curve from the time of dosing to the time of last observation (AUClast); maximum concentration (Cmax); time to maximum concentration (Tmax); elimination half-life (T1/2); and mean residence time from the time of dosing to the time of the last measurable concentration (MRTlast).

[2] = molecular target: ALK G1202R (Homo sapiens, UniProt Q9UM73, G1202R); assay: ALK enzymatic IC50, G1202R; type: biochemical
From the text: (§1) Supplement 12916_2022_2646_MOESM1_ESM.docx, table 1 | column: ALK Enzymatic IC50 (nM)

[3] = molecular target: ALK L1196M (Homo sapiens, UniProt Q9UM73, L1196M); assay: ALK enzymatic IC50, L1196M; type: biochemical
From the text: as §1

[4] = molecular target: ALK WT (Homo sapiens, UniProt Q9UM73); assay: ALK enzymatic IC50, WT; type: biochemical
[5] = system: FAK; design: method as in PMID 27638856; details: less potent than the inhibition to ALK; cited from earlier work
[6] = molecular target: ALK G1269S (Homo sapiens, UniProt Q9UM73, G1269S); assay: ALK enzymatic IC50, G1269S; type: biochemical
From the text: as §1

[7] = cycle 1 day 28 of dose-escalation phase, 600 mg (n=7), mean
[8] = cycle 1 day 28 of dose-escalation phase, 800 mg (n=2), mean
[9] = single dose, PK lead-in phase of dose-escalation phase, 50 mg (n=2), mean
[10] = single dose, PK lead-in phase of dose-escalation phase, 100 mg (n=3), mean
[11] = single dose, PK lead-in phase of dose-escalation phase, 200 mg (n=3), mean
[12] = single dose, PK lead-in phase of dose-escalation phase, 300 mg (n=3), mean
[13] = single dose, PK lead-in phase of dose-escalation phase, 450 mg (n=4), mean
[14] = single dose, PK lead-in phase of dose-escalation phase, 600 mg (n=7), mean
[15] = single dose, PK lead-in phase of dose-escalation phase, 800 mg (n=3), mean

COc1cc(N2CCC(N3CCN(C)CC3)CC2)ccc1Nc1nc2c(c(Nc3ccccc3S(=O)(=O)NC(C)C)n1)CCN2 [Conteltinib]
MRT last [1, 7]: 10.8 h
AUC(0-inf) [1, 7]: 53.8 µg·h/mL
Cmax [1, 7]: 0.985 µg/mL
half-life ([1]; cycle 1 day 28 of dose-escalation phase, 600 mg (n=7), mean, read-out: T1/2 (converted)): 45 h
Tmax ([1]; cycle 1 day 28 of dose-escalation phase, 600 mg (n=7), mean, read-out: Tmax): 2.5 h
AUC(0-t) [1, 8]: 5.5 µg·h/mL
MRT last [1, 8]: 11.6 h
AUC(0-inf) [1, 8]: 27.2 µg·h/mL
Cmax [1, 8]: 0.305 µg/mL
half-life ([1]; cycle 1 day 28 of dose-escalation phase, 800 mg (n=2), mean, read-out: T1/2 (converted)): 52.7 h
Tmax ([1]; cycle 1 day 28 of dose-escalation phase, 800 mg (n=2), mean, read-out: Tmax): 3.5 h
half-life ([1]; multiple-dose administration, read-out: mean T1/2 across dose cohorts): 26.3 to 352 h
Tmax ([1]; multiple-dose administration, read-out: mean Tmax across dose cohorts): 1.5 to 4.3 h
AUC(0-t) [1, 9]: 0.125 µg·h/mL
MRT last [1, 9]: 8.1 h
AUC(0-inf) [1, 9]: 0.206 µg·h/mL
Cmax [1, 9]: 0.0163 µg/mL
half-life ([1]; single dose, PK lead-in phase of dose-escalation phase, 50 mg (n=2), mean, read-out: T1/2 (converted)): 22.5 h
Tmax ([1]; single dose, PK lead-in phase of dose-escalation phase, 50 mg (n=2), mean, read-out: Tmax): 2 h
AUC(0-t) [1, 10]: 0.732 µg·h/mL
MRT last [1, 10]: 30.3 h
AUC(0-inf) [1, 10]: 1.05 µg·h/mL
Cmax [1, 10]: 0.069 µg/mL
half-life ([1]; single dose, PK lead-in phase of dose-escalation phase, 100 mg (n=3), mean, read-out: T1/2 (converted)): 90.2 h
Tmax ([1]; single dose, PK lead-in phase of dose-escalation phase, 100 mg (n=3), mean, read-out: Tmax): 2.8 h
AUC(0-t) [1, 11]: 2.55 µg·h/mL
MRT last [1, 11]: 47.4 h
AUC(0-inf) [1, 11]: 3.11 µg·h/mL
Cmax [1, 11]: 0.14 µg/mL
half-life ([1]; single dose, PK lead-in phase of dose-escalation phase, 200 mg (n=3), mean, read-out: T1/2 (converted)): 83.5 h
Tmax ([1]; single dose, PK lead-in phase of dose-escalation phase, 200 mg (n=3), mean, read-out: Tmax): 2.7 h
AUC(0-t) [1, 12]: 4.34 µg·h/mL
MRT last [1, 12]: 46.2 h
AUC(0-inf) [1, 12]: 5.11 µg·h/mL
Cmax [1, 12]: 0.246 µg/mL
half-life ([1]; single dose, PK lead-in phase of dose-escalation phase, 300 mg (n=3), mean, read-out: T1/2 (converted)): 78.5 h
Tmax ([1]; single dose, PK lead-in phase of dose-escalation phase, 300 mg (n=3), mean, read-out: Tmax): 2.5 h
AUC(0-t) [1, 13]: 9.88 µg·h/mL
MRT last [1, 13]: 40.5 h
AUC(0-inf) [1, 13]: 11.5 µg·h/mL
Cmax [1, 13]: 0.544 µg/mL
half-life ([1]; single dose, PK lead-in phase of dose-escalation phase, 450 mg (n=4), mean, read-out: T1/2 (converted)): 78.7 h
Tmax ([1]; single dose, PK lead-in phase of dose-escalation phase, 450 mg (n=4), mean, read-out: Tmax): 3.3 h
AUC(0-t) [1, 14]: 9.64 µg·h/mL
MRT last [1, 14]: 43.3 h
AUC(0-inf) [1, 14]: 11.2 µg·h/mL
Cmax [1, 14]: 0.452 µg/mL
half-life ([1]; single dose, PK lead-in phase of dose-escalation phase, 600 mg (n=7), mean, read-out: T1/2 (converted)): 78.7 h
Tmax ([1]; single dose, PK lead-in phase of dose-escalation phase, 600 mg (n=7), mean, read-out: Tmax): 3.9 h
AUC(0-t) [1, 15]: 9.82 µg·h/mL
MRT last [1, 15]: 42 h
AUC(0-inf) [1, 15]: 11.2 µg·h/mL
Cmax [1, 15]: 0.421 µg/mL
half-life ([1]; single dose, PK lead-in phase of dose-escalation phase, 800 mg (n=3), mean, read-out: T1/2 (converted)): 77.2 h
Tmax ([1]; single dose, PK lead-in phase of dose-escalation phase, 800 mg (n=3), mean, read-out: Tmax): 3.7 h
half-life ([1]; single-dose administration, read-out: mean T1/2 across dose cohorts): 16.7 to 90.2 h
Tmax ([1]; single-dose administration, read-out: mean Tmax across dose cohorts): 2 to 4.6 h
MRT last ([1]; cycle 1 day 28 of dose-expansion phase, 600 mg (n=10), mean): 10.9 h
half-life ([1]; single dose, cycle 1 day 1 of dose-expansion phase, 450 mg (n=10), mean, read-out: T1/2 (converted)): 23.4 h
IC50 [2]: 6.3 nM
IC50 [3]: 3.8 nM
IC50 [4]: 1.5 nM
FAK inhibition [5]: inhibits
IC50 [6]: 8.4 nM
